{"source": "patent US7592328B2", "about": "“Natural cyclodextrin complexes” (Pedipharm Oy, priority 2002, dated 2009)", "key": {"[1]": {"details": "40% solution of HP-β-CD; cited from earlier work"}, "[2]": {"details": "oral administration, depending on the drug vehicle employed; cited from earlier work"}, "[3]": {"test": "dissolution of CBD from a gelatine capsule in 2% RM-β-CD dissolution media", "format": "physicochemical", "details": "gelatine capsule with 1.0 mg pure CBD and 99 mg lactose, pH 6.6, n=6"}}, "data": [{"compound": "CCCCCc1cc(O)c2c(c1)OC(C)(C)[C@@H]1CCC(C)=C[C@@H]21", "note": "[THC, Δ^9-tetrahydrocannabinol]", "values": [{"measurement": "THC solution concentration obtained", "setting": "[1]", "result": 1, "unit": "mg/mL"}, {"measurement": "bioavailability", "setting": "[2]", "result": "6-20%"}]}, {"compound": "C=C(C)[C@@H]1CCC(C)=C[C@H]1c1c(O)cc(CCCCC)cc1O", "note": "[CBD, cannabidiol]", "values": [{"measurement": "time in which CBD is not fully dissolved", "setting": "[3]", "result": "> 3", "unit": "h"}]}]}
